Drawing on PMC8286840, “Identifying SARS-CoV-2 antiviral compounds by screening for small molecule inhibitors of Nsp3 papain-like protease” (Biochemical Journal, 2021), this text covers remaining activity for 30 molecules.

For experiment [1], the target named is T1, SARS-CoV-2 PLpro (nsp3 1564–1878) (Severe acute respiratory syndrome coronavirus 2, UniProt P0DTD1). In words: biochemical. The arrangement: FRET-quenched peptide (Pro3) cleavage by PLpro, 10 min pre-incubation, slope over 20 min, normalised to no-compound control. The following applies: low concentration screen, read-out: % of control remaining.
Experiment [2] concerns the target T1, SARS-CoV-2 PLpro (nsp3 1564–1878). The experiment can be described thus: biochemical. The arrangement: FRET-quenched peptide (Pro3) cleavage by PLpro, 10 min pre-incubation, slope over 20 min, normalised to no-compound control. To be noted: high concentration screen, read-out: % of control remaining.

Structures can show the parent of a compound that is named as a salt. Where two headings read alike, the source gives them in different places.

On to `COc1ccccc1Oc1c(NS(=O)(=O)c2ccc(C)cn2)nc(-c2ccncc2)nc1OC` [Avosentan], for which the remaining activity at 1.25 µM in experiment [1] (Well no.=7281) is 102%. Besides, the remaining activity at 3.75 µM in experiment [2] (Well no.=7281) was found to be 100%.

On to `O=C(Nc1ncc([N+](=O)[O-])s1)c1ccc([N+](=O)[O-])c(Cl)c1` [SM-7368], for which the remaining activity at 1.25 µM in experiment [1] (Well no.=5947) was determined as 104%. The remaining activity at 3.75 µM in experiment [2] (Well no.=5947) was found to be 103%.

In the case of `CN1CCc2cc3c(cc2[C@H]1[C@@H]1OC(=O)c2c1ccc1c2OCO1)OCO3` [(+)-Bicuculline], the remaining activity at 1.25 µM in experiment [1] (Well no.=369) was 103%; in experiment [1] (Well no.=3679), 99.7%. For the same molecule, the remaining activity at 3.75 µM in experiment [2] (Well no.=369) turned out to be 98.1%; in experiment [2] (Well no.=3679), 99.2%.

On to `C[n+]1cccc(C(=O)O)c1`, for which the remaining activity at 1.25 µM in experiment [1] (Well no.=3390) worked out at 94.5%. For the same molecule, the remaining activity at 3.75 µM in experiment [2] (Well no.=3390) stood at 99.5%.

On to `CCC(=O)c1cc(-c2ccc(Cl)cc2)n(-c2ccc(S(N)(=O)=O)cc2)c1C` [A-867744], for which, in experiment [1] (Well no.=8320), the remaining activity at 1.25 µM was 96.8%. Besides, the remaining activity at 3.75 µM in experiment [2] (Well no.=8320) amounted to 94%.

`NCCC(=O)NCCc1c[nH]cn1` [Carcinine dihydrochloride]: in experiment [1] (Well no.=237), the remaining activity at 1.25 µM came out at 95.2%. The remaining activity at 3.75 µM in experiment [2] (Well no.=237) came out at 97.8%.

In the case of `CP(=O)(O)CCCN` [SKF 97541 hydrochloride], in experiment [1] (Well no.=66), the remaining activity at 1.25 µM stood at 97.4%. Further, the remaining activity at 3.75 µM in experiment [2] (Well no.=66) worked out at 98.7%.

Regarding `O=C1C(C2=C3c4ccccc4NC3/C(=C\c3ccc(O)cc3)C2=O)=C2C(=Nc3ccccc32)/C1=C\c1ccc(O)cc1` (stereo not drawn) [Scytonemin, Lyngbya sp.], the remaining activity at 1.25 µM in experiment [1] (Well no.=2669) came to 96.6%. Moreover, the remaining activity at 3.75 µM in experiment [2] (Well no.=2669) is 101%.

On to `CC(=O)Nc1ccn([C@@H]2O[C@H](COP(=O)(O)OP(=O)(O)OP(=O)(O)O)[C@@H](O)[C@H]2O)c(=O)n1` [N4-Acetylcytidine triphosphate (sodium)], for which the remaining activity at 1.25 µM came out at 109% in experiment [1] (Well no.=7305) and 95.2% in experiment [1] (Well no.=7964). In addition, the remaining activity at 3.75 µM in experiment [2] (Well no.=7305) came out at 109%; in experiment [2] (Well no.=7964), 92.1%.

Turning to `N#CC[C@H](C1CCCC1)n1cc(-c2ncnc3[nH]ccc23)cn1` [S-Ruxolitinib], in experiment [1] (Well no.=4841), the remaining activity at 1.25 µM amounted to 96.7%. Also, the remaining activity at 3.75 µM in experiment [2] (Well no.=4841) was found to be 97.5%.

For the molecule `C[C@H]1O[C@@H](n2cc(F)c(=O)[nH]c2=O)[C@H](O)[C@@H]1O` [Doxifluridine], the results for the remaining activity at 1.25 µM in experiment [1] (Well no.=1990) and in experiment [1] (Well no.=8843) were 101% and 96.7%, respectively. Also, the remaining activity at 3.75 µM in experiment [2] (Well no.=1990) was 103%; in experiment [2] (Well no.=8843) it was 89.3%.

Turning to `O=C1CCCC(=O)C1C(=O)c1ccc(C(F)(F)F)cc1[N+](=O)[O-]` [Nitisinone], the remaining activity at 1.25 µM in experiment [1] (Well no.=5887) amounted to 103%. Moreover, the remaining activity at 3.75 µM in experiment [2] (Well no.=5887) turned out to be 103%.

Take `CC(C)=CCC/C(C)=C/CC/C(C)=C/CC/C=C(\C)CC/C=C(\C)CCC=C(C)C` [Squalene]: in experiment [1] (Well no.=7255), the remaining activity at 1.25 µM is 98.6%. Moreover, the remaining activity at 3.75 µM in experiment [2] (Well no.=7255) was 96.6%.

Consider `CO[C@H](C(=O)[C@@H](O)[C@@H](C)O)[C@@H]1Cc2cc3cc(O[C@H]4C[C@@H](O[C@@H]5C[C@@H](O)[C@H](O)[C@@H](C)O5)[C@H](O)[C@@H](C)O4)c(C)c(O)c3c(O)c2C(=O)[C@H]1O[C@H]1C[C@@H](O[C@@H]2C[C@@H](O)[C@@H](O[C@@H]3C[C@](C)(O)[C@H](O)[C@@H](C)O3)[C@@H](C)O2)[C@H](O)[C@@H](C)O1` [Plicamycin], for which the remaining activity at 1.25 µM in experiment [1] (Well no.=1666) was 107%. Also, in experiment [2] (Well no.=1666), the remaining activity at 3.75 µM was found to be 106%.

Regarding `CNC[C@H](O)c1ccc(O)c(O)c1` [(-)-Epinephrine bitartrate], the remaining activity at 1.25 µM in experiment [1] (Well no.=509) amounted to 102%. The remaining activity at 3.75 µM in experiment [2] (Well no.=509) came to 99.3%.

On to `C[C@H]1C/C=C/[C@H]2[C@@H]3O[C@]3(C)[C@@H](C)[C@H]3[C@H](Cc4ccccc4)NC(=O)[C@]32OC(=O)O/C=C/[C@@](C)(O)C1=O` [Cytochalasin E], for which the remaining activity at 1.25 µM in experiment [1] (Well no.=3627) was 101%. Also, the remaining activity at 3.75 µM in experiment [2] (Well no.=3627) was 103%.

As for `Cc1c(O)c(=O)ccn1C` [Deferiprone], the remaining activity at 1.25 µM in experiment [1] (Well no.=5130) came to 97.3%. Also, the remaining activity at 3.75 µM in experiment [2] (Well no.=5130) stood at 98.7%.

With `CN1Cc2c(N)cccc2C(c2ccccc2)C1` (stereo not drawn) [Nomifensine (maleate)], the remaining activity at 1.25 µM in experiment [1] (Well no.=8395) came to 97.9%. Besides, in experiment [2] (Well no.=8395), the remaining activity at 3.75 µM turned out to be 95.9%.

On to `N/C(=N\C(=O)c1nc(Cl)c(N)nc1N)NCc1ccc(Cl)c(Cl)c1` [3',4'-Dichlorobenzamil], for which, in experiment [1] (Well no.=440), the remaining activity at 1.25 µM is 99.5%. Besides, in experiment [2] (Well no.=440), the remaining activity at 3.75 µM was 88.3%.

As to `CCCCCCCC[C@H]1O[C@H]1CCCCCCCC(=O)O` [Epoxy-oleic acid], in experiment [1] (Well no.=4569), the remaining activity at 1.25 µM worked out at 96.6%. Further, the remaining activity at 3.75 µM in experiment [2] (Well no.=4569) turned out to be 103%.

As to `O=C(O)/C=C/c1ccc(Cn2ccnc2)cc1` [Ozagrel], the remaining activity at 1.25 µM in experiment [1] (Well no.=1886) stood at 91.5%. The remaining activity at 3.75 µM in experiment [2] (Well no.=1886) was found to be 93.9%.

Consider `Cc1ccc(-n2sc(=O)n(Cc3ccc(F)cc3)c2=O)cc1` [CCG 50014], for which the remaining activity at 1.25 µM in experiment [1] (Well no.=5215) was 105%. The remaining activity at 3.75 µM in experiment [2] (Well no.=5215) turned out to be 102%.

As for `N#CC(C#N)=Cc1cc(O)c(O)c(O)c1` [Tyrphostin 25], the remaining activity at 1.25 µM in experiment [1] (Well no.=1485) is 90.9%. In addition, the remaining activity at 3.75 µM in experiment [2] (Well no.=1485) came to 86.6%.

As for `CCN(CCCCO)C(C)Cc1ccc(O)cc1` (stereo not drawn) [O-desmethyl Mebeverine alcohol (hydrochloride)], the remaining activity at 1.25 µM in experiment [1] (Well no.=8489) worked out at 94.7%. Besides, in experiment [2] (Well no.=8489), the remaining activity at 3.75 µM was determined as 99.4%.

`C[C@]12CCC(=O)C=C1CC[C@@H]1[C@@H]2CC[C@]2(C)C(=O)CC[C@@H]12` [4-Androstene-3,17-dione]: the remaining activity at 1.25 µM in experiment [1] (Well no.=154) turned out to be 103%. Moreover, the remaining activity at 3.75 µM in experiment [2] (Well no.=154) was determined as 99.2%.

As for `O=C(/C=C/c1ccc(O)cc1)CC(=O)/C=C/c1ccc(O)cc1` [Bisdemethoxycurcumin], the remaining activity at 1.25 µM in experiment [1] (Well no.=6536) is 97.5%. For the same molecule, the remaining activity at 3.75 µM in experiment [2] (Well no.=6536) is 92.4%.

Regarding `CN(C)C(N)=NCCC[C@H](N)C(=O)O` [N^G,N^G-Dimethylarginine hydrochloride], the remaining activity at 1.25 µM in experiment [1] (Well no.=689) was 97%. Also, the remaining activity at 3.75 µM in experiment [2] (Well no.=689) turned out to be 97%.

For the molecule `N[C@H](C(=O)O)[C@@H]1CC(Cl)=NO1` [Acivicin], the remaining activity at 1.25 µM in experiment [1] (Well no.=3483) came to 96.9%. Besides, in experiment [2] (Well no.=3483), the remaining activity at 3.75 µM was 97.4%.

With `C[C@@H]1O[C@@H](O[C@H]2C(=O)c3c(O)cc(O)cc3O[C@@H]2c2ccc(O)c(O)c2)[C@H](O)[C@H](O)[C@H]1O` [Astilbin], the remaining activity at 1.25 µM in experiment [1] (Well no.=6924) was determined as 114%. In addition, the remaining activity at 3.75 µM in experiment [2] (Well no.=6924) amounted to 106%.

In the case of `Cc1cc2c(F)c(Oc3ncnn4cc(OC[C@@H](C)OC(=O)[C@H](C)N)c(C)c34)ccc2[nH]1` [Brivanib alaninate (BMS-582664)], the remaining activity at 1.25 µM in experiment [1] (Well no.=5049) is 102%. Also, the remaining activity at 3.75 µM in experiment [2] (Well no.=5049) worked out at 104%.
